Experimental data published in US3971814A, “Benzo(b)thiophene derivatives” (priority 1972, dated 1976).

Key:
[1] = system: Yeast Edema of the Rat Paw; assay: Yeast edema and determination of pain threshold in the rat paw; type: in vivo; conditions: 3 h
Description: test animals are male rats (SIV 50) weighing 100 to 180 g. […] 10 animals belonged to each dosage group.
The volume of the paw is determined according to the method described by Enders and Heidbrink, the pain threshold according to that described by Randall and Selitto (Arch. Int. Pharmacodyn CXI: 409, 1957).
Following initial measurements, […] of a 5% suspension of dried yeast is injected subplantarly into the right paw and the test substances are administered immediately. The blank control group is given Tragacanth mucilage only. After 3 hours the pain threshold and the volume of the paw are determined again.
The mean value of the increase in paw volume of the animals of the blank control after 3 hours is rated 100%, and the mean value of the increase in paw volume of the animals of the substance groups expressed as a percentage thereof. Pain threshold after 3 hours reflects the increase or decrease in percent, compared to the initial value.
In order to be able to calculate the ED50 according to the method by Lichtfield and Wilcoxon (J.P.E.T. 96:99, 1949), those animals in a dose group are considered protected when the paw swelling was at least 40% less than that of the blank control.

[2] = Summary: calculated ED50 and therapeutic ratio; type: in vivo, rat; conditions: for ED50: Rattus norvegicus
Description: From the ED50 and LD50 (A) the following therapeutic ratios for this test are calculated: […]

Granulation Tissue = assay: Cotton-pellet test (granulation tissue); type: in vivo; conditions: rat
Description: test animals are male rats (SIV 50) weighing 110 to 200 g. All test animals are kept fasting for 16 to 18 hours prior to the implantation of the pellets; after that food and water were available ad libitum. Each dose level of the chemical tested was administered to 12 animals. The substances were suspended in 1% Tragacanth mucilage and administered intragastrically by means of a stomach tube. The substances to be investigated and the control suspensions are administered once on the operating day following operation, and twice a day on the following 6 days (at intervals of 6 to 8 hours). The type of application and volume of liquid corresponded to that under B.
Under light ether anesthesia 4 sterile cotton pellets were implanted under the skin on the back of the animal. The weight of one pellet was 50 mg ± 0.5 mg. After 7 days treatment, the animals were sacrificed, the pellets removed with the granulation tissue, weighed and then dried in the incubator at +80°C to constant weight. The average dry weight of the granulation tissue of the control group was rated 100%, and deviations of the mean weights of the group treated with the test substance determined as a percentage thereof.
The weight of the animals is measured daily throughout the tests, and the percental increase determined. At the end of some tests, moreover, the suprarenal glands are removed and their weight determined.

Granuloma Pouch = assay: Granuloma pouch test; type: in vivo; conditions: rat
Description: Under light ether anesthesia 25 ml of air are injected under the shaved skin of the back. 0.5 ml of croton oil/animal (0.05%) are injected into the pouch formed by the air, and evenly distributed over the back by turning the animal.
On the third day croton oil (3%, 0.5 ml/animal) is again injected into this pouch.
The average dry weights of the granuloma pouches and the quantities of secretion of the groups subjected to treatment are then compared with those of the control group and the percental deviations calculated.
At the end of some tests the suprarenal glands are removed and the weight of these organs is also determined.
The weight of the animals is measured daily and the changes determined as a percentage.

[3] = system: Kaolin Edema of the Rat Paw; assay: Kaolin edema of the rat paw; type: in vivo; conditions: for 60 min. (paw edema) / 120 min. (paw edema) / 180 min. (paw edema): ig., section K
Description: test animals used are the same as stated under Example B and up to the beginning of the test, the procedure corresponded to that described under this example.
After an initial measurement, a sterile 25% kaolin suspension was injected (0.05 ml/paw) subplantarly. The test substances are administered immediately, and after 60, 120, and 180 minutes the paw volume is again determined.
Evaluation of the tests was performed as stated under Example C, and the results so obtained presented below: […]

[4] = system: Carrageenin Edema of the Rat Paw; assay: Carrageenin edema of the rat paw; type: in vivo
Description: test animals used are the same as stated under Example B and up to the initial measurement, the procedure corresponded to that described under this example.
After an initial measurement, the test substances are administered and after 60 minutes a 1% Carrageenin suspension is injected subplantarly (0.1 ml/paw). After 60 and 180 minutes the paw volume is again determined. Here, too, the blank control group was treated with the carrier alone.
The increase in the volume of the paw after 60 minutes is considered as the first phase of the biphase edema and that after 180 minutes, as compared to the 60-minute-value, as the second phase. Moreover, the total increase of the paw edema within 180 minutes, as compared to the initial value, is also determined.
Determination of the influence exerted by the substances upon the development of the paw edema and calculation of the ED50 are done as under Example B.

male mice (NMRI) = assay: Hot-plate test (analgesia); type: in vivo; conditions: mouse, i.g., up to 400 mg/kg
Description: male mice (NMRI) weighing 18 to 28 g are used as test animals. The animals are placed on a copper plate constantly kept at 55°C, and the time is measured until they lick their forepaws.
Following 3 initial measurements, the test substances are administered intragastrically. Afterwards the measurements are repeated over a period of 2 hours at intervals of 30 minutes. Each dose is administered to 10 animals selected from groups of 15 animals following the initial measurements.
The test substances are administered as a suspension in 1% Tragacanth mucilage, the volume of liquid amounting to 2 ml/100 g of body weight.
For the purpose of statistical evaluation according to Litchfield and Wilcoxon, those animals in which the reaction time has been extended by at least 100% are considered protected.

[5] = system: Arthritis Induced by the Freund Adjuvant; assay: Adjuvant arthritis; type: in vivo; conditions: rat, i.g., 2 × 60.0 mg/kg
Description: test animals used are the same as described under Example E; food and water is given ad libitum.
On the first day of the test a 0.8% suspension of Mycobacterium butyrium in paraffin (0.05 or 0.1 ml/paw) is injected subplantarly into the left hind paw of the animals. […] From the 19th to the 22nd day the animals showing a reaction are treated intragastrically with the test substances. The right paw having been marked above the ankle-joint, the volume is determined daily from the 19th to the 22nd or 23rd day, according to the process described under Example B.
The volume of liquid, as well as of the carrier administered, corresponded to that described in the above tests.

in vivo = conditions: mouse, po
[6] = ig., 2×90.0 mg/kg daily, section K

CC(=O)Oc1ccccc1C(=O)O [Acetylsalicylic Acid, acetylsalicylic acid]
Volume (increase in paw volume, blank control = 100%) ([1]; i.g., 150.0 mg/kg): 134% | Pain Threshold (change vs initial value) ([1]; i.g., 300.0 mg/kg): -15% | Volume (increase in paw volume, blank control = 100%) ([1]; i.g., 300.0 mg/kg): 81% | ED50 [2]: 192 mg/kg | therapeutic ratio ([2]; from ED50 and LD50 (A)): 10.7 | Granulation Tissue % (Dry Weight) (Granulation Tissue; i.g., 2 × 200 mg/kg daily): 89% | Increase in Body Weight (Granulation Tissue; i.g., 2 × 200 mg/kg daily): not influenced | Granuloma Pouch Dry Weight (Granuloma Pouch; i.g., 2 × 150 mg/kg daily): 88% | Increase in Body Weight (Granuloma Pouch; i.g., 2 × 150 mg/kg daily): not influenced | Secretion (Granuloma Pouch; i.g., 2 × 150 mg/kg daily): 121% | 60 Minutes (paw edema) ([3]; 300.0 mg/kg): 156% | 120 Minutes (paw edema) ([3]; 300.0 mg/kg): 93% | 180 Minutes (paw edema) ([3]; 300.0 mg/kg): 82% | 60 min. (paw edema) ([3]; 300 mg/kg): 156% | 120 min. (paw edema) ([3]; 300 mg/kg): 93% | 180 min. (paw edema) ([3]; 300 mg/kg): 82% | 1st Phase (paw edema) ([4]; 100.0 mg/kg): 83% | 2nd Phase (paw edema) ([4]; 100.0 mg/kg): 114% | 3 Hrs. (total paw edema) ([4]; 100.0 mg/kg): 96% | 1st Phase (paw edema) ([4]; 200.0 mg/kg): 95% | 2nd Phase (paw edema) ([4]; 200.0 mg/kg): 60% | 3 Hrs. (total paw edema) ([4]; 200.0 mg/kg): 76% | Notes (analgesic activity) (male mice (NMRI)): ineffective

CCCCC1C(=O)N(c2ccccc2)N(c2ccccc2)C1=O [Phenylbutazone, 4-n-Butyl-1,2-diphenyl-3,5-dioxo-pyrazolidine]
Volume (increase in paw volume, blank control = 100%) ([1]; i.g., 150.0 mg/kg): 74% | Volume (increase in paw volume, blank control = 100%) ([1]; i.g., 300.0 mg/kg): 67% | ED50 [2]: 20.1 mg/kg | Granulation Tissue % (Dry Weight) (Granulation Tissue; i.g., 2 × 90 mg/kg daily): 78% | Increase in Body Weight (Granulation Tissue; in vivo, 90 mg/kg): not influenced | Granuloma Pouch Dry Weight (Granuloma Pouch; i.g., 2 × 90 mg/kg daily): 84% | Secretion (Granuloma Pouch; i.g., 2 × 90 mg/kg daily): 96% | granuloma pouch dry weight % (Granuloma Pouch; [6]): 84% | secretion % (Granuloma Pouch; [6]): 96% | Increase in Body Weight (Granuloma Pouch; in vivo, 90 mg/kg): not influenced | increase in body weight % (Granuloma Pouch; in vivo, 90 mg/kg): 57% | 60 Minutes (paw edema) ([3]; 90.0 mg/kg): 107% | 120 Minutes (paw edema) ([3]; 90.0 mg/kg): 100% | 180 Minutes (paw edema) ([3]; 90.0 mg/kg): 81% | 1st Phase (paw edema) ([4]; 60.0 mg/kg): 114% | 2nd Phase (paw edema) ([4]; 60.0 mg/kg): 52% | 3 Hrs. (total paw edema) ([4]; 60.0 mg/kg): 77% | 1st Phase (paw edema) ([4]; 150.0 mg/kg): 81% | 2nd Phase (paw edema) ([4]; 150.0 mg/kg): 15% | 3 Hrs. (total paw edema) ([4]; 150.0 mg/kg): 38% | Swelling [5]: 84%

CCOCCCNC(=N)c1sc2ccccc2c1O [Example 41]
change in vivo at 125 mg/kg ([1]; po, ig., 125 mg/kg, section K (control -9)): 22% | response vs control in vivo at 125 mg/kg ([1]; po, ig., 125 mg/kg, section K, read-out: volume (paw, control = 100%)): 51% | granulation tissue % dry weight (Granulation Tissue; ig., 2×150 mg/kg daily, section K): 90% | increase in body weight % (Granulation Tissue; ig., 2×150 mg/kg daily, section K, control 36): 29% | LD50 (in vivo): ~1600 mg/kg

CCOCCOC(=N)c1sc2ccccc2c1O [Example 11]
change in vivo at 200 mg/kg ([1]; po, ig., 200 mg/kg, section K): 32% | response vs control in vivo at 200 mg/kg ([1]; po, ig., 200 mg/kg, section K, read-out: volume (paw, control = 100%)): 41% | 60 min. (paw edema) ([3]; 50 mg/kg): 40% | 120 min. (paw edema) ([3]; 50 mg/kg): 36% | 180 min. (paw edema) ([3]; 50 mg/kg): 56% | 60 min. (paw edema) ([3]; 100 mg/kg): 22% | 120 min. (paw edema) ([3]; 100 mg/kg): 27% | 180 min. (paw edema) ([3]; 100 mg/kg): 46% | LD50 (in vivo): > 1600 mg/kg

COC(=N)c1sc2ccccc2c1O [Example 1, Methyl 3-Hydroxy-Benzo[b]Thiopene-2-Carboximidate]
change in vivo at 75 mg/kg ([1]; po, ig., 75 mg/kg, section K (control -23)): -10% | response vs control in vivo at 75 mg/kg ([1]; po, ig., 75 mg/kg, section K (control pain -23), read-out: volume (paw, control = 100%)): 32% | LD50 (in vivo): > 1600 mg/kg
